# Results published in patent US12668587B2, “Benzimidazolone GLP-1 receptor agonist and use thereof” (HANGZHOU ZHONGMEIHUADONG PHARMACEUTICAL CO., LTD., priority 2020, dated 2026).
# Legend:
# Human GLP-1R = Human GLP-1R (Homo sapiens, UniProt P43220); assay: GLP-1R agonist activity, HTRF cAMP detection in 293A GFP-GLP-1R cells; set-up: Emax: dose or concentration left out as unconfirmed; conditions: for Emax: 293A
# Procedure: GLP-1R-mediated agonist activity was determined by cell-based assays using a homogeneous time-resolved fluorescence (i.e., HTRF)-based cAMP detection kit, which measures the level of cAMP in cells. The method was a competitive immunoassay. It enabled direct pharmacological characterization of compounds acting on Gs-coupled receptors in adherent or suspending cells.
# The standard curve of native cAMP or unlabeled cAMP produced by cells competed with d2-labeled cAMP red receptors to bind monoclonal anti-cAMP Eu3+ cryptate donors, and the specific signal was inversely proportional to the concentration of cAMP in standard or tested samples.
# Human GLP-1R encoding sequence (NCBI reference sequence NP_002053.3) was subcloned into pEGFP-N1 (tsingke), and the cell line stably expressing the receptor was isolated. The expression density of GLP-1R was confirmed by the expression of GFP observed under a fluorescence microscope.
# Cells were collected from a T25 tissue culture flask and centrifuged at room temperature at 1000 rpm for 5 minutes. The cell precipitates were then re-suspended in 1 mL of the stimulating buffer. 20 μL sample of cell suspension was counted on a counter STAR IC 1000 to determine the cell viability and the cell count per mL. The remaining cell suspension was then regulated with the stimulating buffer to deliver 2000 living cells per well using a multi-channel pipette. 5 μL of the cell suspension was added to each well of the plate which already contained the compound. The plate was sealed and incubated at 37° C. with 5% CO2 for 30 minutes.
# After 30 minutes of incubation, 5 μL of d2-labeled cAMP and 5 μL of anti-cAMP cryptate (both 1: 20 diluted in the cell lysis buffer) were added to each well of the plate. The plate was then incubated at room temperature for 60 minutes, and the changes of HTRF signal were read with Tecan Spark reader: absorbance values at 340 nm (excitation)/at 615 nm and 665 nm (emission). Raw data were converted into nM cAMP by interpolation from the cAMP standard curve, and the effect in percentage was determined relative to the saturated concentration of the complete agonist GLP-17˜37 (400 nM) contained in each plate. Determination of EC50 was performed based on the agonist dose-response curve, which was analyzed using a four-parameter logical dose-response equation with a curve fitting program.
# The test data presented the results in the form of a geometric mean (EC50s) based on the number of repetition times.
# [1] = Metabolic stability in (human) liver microsomes; conditions: pH 7.4
# hERG potassium channels = hERG potassium channels (Homo sapiens, UniProt Q12809); assay: Inhibition of hERG potassium channels, whole-cell patch clamp in HEK-293-hERG cells
# Sequence of hERG potassium channels (Q12809 whole entry): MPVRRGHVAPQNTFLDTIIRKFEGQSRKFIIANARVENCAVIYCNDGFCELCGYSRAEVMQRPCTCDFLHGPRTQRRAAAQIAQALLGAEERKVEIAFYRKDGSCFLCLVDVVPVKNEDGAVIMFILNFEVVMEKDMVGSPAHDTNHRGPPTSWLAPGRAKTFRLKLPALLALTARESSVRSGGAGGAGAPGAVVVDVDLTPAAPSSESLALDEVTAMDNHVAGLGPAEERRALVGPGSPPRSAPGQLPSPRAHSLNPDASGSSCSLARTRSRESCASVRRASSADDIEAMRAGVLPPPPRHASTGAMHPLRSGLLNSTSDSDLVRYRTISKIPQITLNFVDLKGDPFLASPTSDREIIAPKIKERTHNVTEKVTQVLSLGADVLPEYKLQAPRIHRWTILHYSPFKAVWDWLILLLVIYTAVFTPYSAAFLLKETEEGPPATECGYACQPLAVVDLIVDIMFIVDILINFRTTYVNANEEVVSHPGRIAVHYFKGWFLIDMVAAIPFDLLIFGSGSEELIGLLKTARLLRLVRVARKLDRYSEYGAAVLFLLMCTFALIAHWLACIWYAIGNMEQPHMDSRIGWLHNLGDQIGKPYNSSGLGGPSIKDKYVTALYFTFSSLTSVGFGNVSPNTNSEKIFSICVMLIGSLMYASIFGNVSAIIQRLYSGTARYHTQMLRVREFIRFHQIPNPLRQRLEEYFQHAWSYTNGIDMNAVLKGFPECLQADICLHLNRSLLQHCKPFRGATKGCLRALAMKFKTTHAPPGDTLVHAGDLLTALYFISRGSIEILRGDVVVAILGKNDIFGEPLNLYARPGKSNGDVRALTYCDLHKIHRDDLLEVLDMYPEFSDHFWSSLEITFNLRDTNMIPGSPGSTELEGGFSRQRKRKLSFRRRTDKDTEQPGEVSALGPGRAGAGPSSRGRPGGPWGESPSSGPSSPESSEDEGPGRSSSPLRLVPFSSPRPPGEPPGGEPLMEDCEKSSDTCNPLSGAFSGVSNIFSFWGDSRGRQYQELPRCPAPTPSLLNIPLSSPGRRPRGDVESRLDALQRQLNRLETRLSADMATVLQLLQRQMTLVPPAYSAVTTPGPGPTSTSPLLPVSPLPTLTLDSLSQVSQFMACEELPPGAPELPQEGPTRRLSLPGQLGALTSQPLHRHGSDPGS
# Sequence of Human GLP-1R (P43220 24-463): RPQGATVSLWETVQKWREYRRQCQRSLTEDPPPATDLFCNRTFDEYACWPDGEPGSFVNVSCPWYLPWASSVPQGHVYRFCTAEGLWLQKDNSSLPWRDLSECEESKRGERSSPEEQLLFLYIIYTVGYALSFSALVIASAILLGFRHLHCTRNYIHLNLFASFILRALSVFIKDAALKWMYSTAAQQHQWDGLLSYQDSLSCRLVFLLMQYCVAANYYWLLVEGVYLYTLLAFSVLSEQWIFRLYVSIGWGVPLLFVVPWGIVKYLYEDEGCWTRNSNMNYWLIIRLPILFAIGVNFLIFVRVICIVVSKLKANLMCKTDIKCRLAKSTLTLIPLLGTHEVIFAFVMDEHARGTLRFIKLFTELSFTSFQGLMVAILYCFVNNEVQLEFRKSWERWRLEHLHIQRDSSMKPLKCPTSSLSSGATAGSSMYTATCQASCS
EC50 (Human GLP-1R) [nM],Emax (Human GLP-1R) [%],half-life at 1 μM [1] [min],SMILES,hERG (IR) (hERG potassium channels; inhibition rate of hERG tail current at 1 μM) [%],hERG (IR) (hERG potassium channels; inhibition rate of hERG tail current at 10 μM) [%]
0.95,100,25.5,"CCC(=O)c1ccc(COc2cccc(C3=CCN(Cc4nc5ccc(C(=O)O)cc5n4C[C@@H]4CCO4)CC3)n2)c(F)c1 [Compound 25, (S)-2-((6-((2-fluoro-4-propionylbenzyl)oxy)-3′,6′-dihydro-[2,4′-bipyridin]-1′(2′H)-yl)methyl)-1-(oxetan-2-ylmethyl)-1H-benzo[d]imidazole-6-carboxylic acid]",,
0.7,81.5,14.2,"CC(=O)c1ccc(COc2cccc(C3=CCN(Cc4nc5ccc(C(=O)O)cc5n4C[C@@H]4CCO4)CC3)n2)c(F)c1 [Compound 34, (S)-2-((6-((4-acetyl-2-fluorobenzyl)oxy)-3′,6′-dihydro-[2,4′-bipyridin]-1′(2′H)-yl)methyl)-1-(oxetan-2-ylmethyl)-1H-benzo[d]imidazole-6-carboxylic acid]",,

SMILES,EC50 (Human GLP-1R) [nM],Emax (Human GLP-1R) [%],half-life at 1 μM [1] [min],hERG (IR) (hERG potassium channels; inhibition rate of hERG tail current at 1 μM) [%],hERG (IR) (hERG potassium channels; inhibition rate of hERG tail current at 10 μM) [%]
"O=C(O)c1ccc2nc(CN3CC=C(c4cccc(OCc5ccc(C(=O)C6CC6)cc5F)n4)CC3)n(C[C@@H]3CCO3)c2c1 [Compound 22, (S)-2-((6-((4-(cyclopropanecarbonyl)-2-fluorobenzyl)oxy)-3′,6′-dihydro-[2,4′-bipyridin]-1′(2′H)-yl)methyl)-1-(oxetan-2-ylmethyl)-1H-benzo[d]imidazole-6-carboxylic acid]",2.07,83.4,60.1,0.92,23.50
